Reference: patent US20240336934A1, “CRISPR/CAS9-BASED COMPOSITIONS AND METHODS FOR TREATING RETINAL DEGENERATIONS” (The Johns Hopkins University, priority 2016, published 2024)

What was measured:
primary RGCs [1] = assay: Primary RGC survival (CellTiter-Glo) after immunopanning / colchicine; format: cell-based, mouse; details: combined knockdown of both DLK and LZK
From the text: For this screen, a high-throughput method was developed for knocking down gene expression in primary RGCs, from male and female C57Bl/6 mice (7), with small interfering RNA oligonucleotides (siRNAs) and coupled it with a quantitative assay of RGC survival (CellTiter-Glo, Promega) (5).
In order to identify these other targets, the kinome screen was modified to include Dlk siRNA in every well and sensitize it to those library siRNAs that synergized with DLK knockdown to further increase RGC survival (FIG. 19A). The other modification was to allow 48 hours for extant protein turnover, before exacerbating the immunopanning injury with colchicine, a microtubule destabilizer that has been used to model axon injury in vitro and in vivo (15, 16).

hESC-derived RGCs = assay: Survival of hESC-derived RGCs after colchicine challenge; format: cell-based, human; details: two days after colchicine (1 μM); tozasertib (1 μM), Genentech inhibitor 123 (0.1 μM)
Method: FIG. 69A depicts survival (±SD) of hESC-derived RGCs two days after a challenge with vehicle or colchicine (1 μM) in the presence of the DLK/LZK inhibitors tozasertib (1 μM), Genentech inhibitor 123 (0.1 μM) or a vehicle control. FIG. 69B depicts survival (±SD) of hESC-derived RGCs two days after a challenge with colchicine (1 μM) in the presence of increasing doses of sunitinib.

RGCs = details: rat optic nerve transection and glaucoma models; cited from earlier work
DLK [2] = target: T1, DLK (Homo sapiens, UniProt Q12852); details: published kinase inhibitor profiling data; cited from earlier work
T1 sequence (Q12852 1-859): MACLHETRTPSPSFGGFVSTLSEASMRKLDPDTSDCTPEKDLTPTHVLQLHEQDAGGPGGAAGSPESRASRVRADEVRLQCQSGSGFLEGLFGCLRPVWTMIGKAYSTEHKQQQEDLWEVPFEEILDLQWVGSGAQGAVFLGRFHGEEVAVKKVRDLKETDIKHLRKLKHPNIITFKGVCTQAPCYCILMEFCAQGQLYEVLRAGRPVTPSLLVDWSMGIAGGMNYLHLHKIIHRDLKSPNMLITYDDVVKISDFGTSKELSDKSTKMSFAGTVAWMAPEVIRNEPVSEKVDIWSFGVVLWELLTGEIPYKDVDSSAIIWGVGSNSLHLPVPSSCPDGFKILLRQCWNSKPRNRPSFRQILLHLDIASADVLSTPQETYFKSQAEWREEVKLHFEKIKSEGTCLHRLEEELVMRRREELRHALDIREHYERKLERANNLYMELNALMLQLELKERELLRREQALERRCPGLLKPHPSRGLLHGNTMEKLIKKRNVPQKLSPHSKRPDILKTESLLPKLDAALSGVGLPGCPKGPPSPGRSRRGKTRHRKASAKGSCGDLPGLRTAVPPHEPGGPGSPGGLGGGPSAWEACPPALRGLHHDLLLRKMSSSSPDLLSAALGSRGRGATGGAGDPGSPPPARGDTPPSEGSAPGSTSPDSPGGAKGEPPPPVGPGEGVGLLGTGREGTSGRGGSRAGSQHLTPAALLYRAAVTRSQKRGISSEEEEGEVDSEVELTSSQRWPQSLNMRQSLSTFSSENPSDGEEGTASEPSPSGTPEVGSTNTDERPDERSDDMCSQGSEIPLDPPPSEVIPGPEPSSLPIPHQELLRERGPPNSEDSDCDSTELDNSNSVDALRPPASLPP

primary RGCs [3] = details: compared with DLK knockdown or knockout alone; cited from earlier work
LZK = target: T2, LZK (Homo sapiens, UniProt O43283); details: published kinase inhibitor profiling data; cited from earlier work
T2 sequence (O43283 1-966): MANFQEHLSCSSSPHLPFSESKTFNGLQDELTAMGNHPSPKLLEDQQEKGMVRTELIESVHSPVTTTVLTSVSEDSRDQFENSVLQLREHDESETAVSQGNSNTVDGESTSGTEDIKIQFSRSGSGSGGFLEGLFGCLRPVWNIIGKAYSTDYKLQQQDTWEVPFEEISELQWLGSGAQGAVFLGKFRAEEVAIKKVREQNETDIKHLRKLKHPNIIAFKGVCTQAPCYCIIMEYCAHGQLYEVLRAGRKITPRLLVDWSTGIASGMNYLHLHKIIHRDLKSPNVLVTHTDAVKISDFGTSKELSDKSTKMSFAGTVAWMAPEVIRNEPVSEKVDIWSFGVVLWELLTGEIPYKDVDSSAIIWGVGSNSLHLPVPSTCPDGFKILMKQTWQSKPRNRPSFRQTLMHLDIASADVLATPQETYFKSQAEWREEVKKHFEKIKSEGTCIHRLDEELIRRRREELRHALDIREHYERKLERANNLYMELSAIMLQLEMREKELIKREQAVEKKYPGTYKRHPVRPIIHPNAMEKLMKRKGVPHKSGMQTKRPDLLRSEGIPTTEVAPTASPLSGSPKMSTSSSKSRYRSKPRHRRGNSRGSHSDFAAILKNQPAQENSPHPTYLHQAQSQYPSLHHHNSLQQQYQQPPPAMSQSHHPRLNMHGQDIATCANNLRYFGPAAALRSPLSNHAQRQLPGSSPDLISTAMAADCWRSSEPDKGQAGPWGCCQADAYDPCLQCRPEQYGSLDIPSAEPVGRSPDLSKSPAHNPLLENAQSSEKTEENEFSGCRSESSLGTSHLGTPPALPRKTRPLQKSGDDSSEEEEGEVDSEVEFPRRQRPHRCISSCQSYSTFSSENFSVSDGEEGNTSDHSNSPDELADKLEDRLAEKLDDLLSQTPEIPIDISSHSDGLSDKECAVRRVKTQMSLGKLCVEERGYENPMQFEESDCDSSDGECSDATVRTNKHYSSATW

Dlk [4] = assay: scAAV/lentivirus transduction of RGCs from Cas9 mouse; BglII assay for Dlk gene editing; format: cell-based; details: gRNA delivered by ssAAV, Cas9 present from the mouse
From the text: Cells were harvested from the Cas9 mouse, and transduced in vitro. […] The construct was packaged to produce a self-complementary AAV (scAAV). […] Cells were harvested from the Cas9 mouse, and transduced in vitro. […] The gRNA (mm079) was delivered by ssAAV and Cas9 was present from the mouse
Titration of scAAV virus transducing either WT RGC or RGCs derived from the Cas9 mouse. […] In this assay, we are assaying for cutting by loss of a restriction enzyme site. […] A construct was generated using the H1 promoter to express a gRNA (shown in black) and mCherry simultaneously. […] The construct was packaged to produce a self-complementary AAV (scAAV).
To test this system, an AAV construct was generated that used the H1 promoter to express an mCherry-histone 2B fusion in the Pol II direction and the Dlk #4 gRNA (5′[sequence] 3′ (SEQ ID NO: 163)), which conveniently targets a BglII site (FIGS. 19G and 1H), in the Pol III direction (Dlk gRNA:H1:H2B-mCherry). […]
For restriction analysis, genomic DNA was extracted by resuspending cells in QuickExtract solution (Epicentre, Madison, WI), incubating at 65° C. for 20 min, and then at 98° C. for 20 min. The extract solution was used directly or cleaned using DNA Clean and Concentrator (Zymo Research, Irvine, CA), and quantitated by NanoDrop (Thermo 30 Fisher Scientific).

Row | Compound | RGC survival on addition of drug to combined knockdown of DLK and LZK (primary RGCs [1]) | survival of hESC-derived RGCs (hESC-derived RGCs) | protection of RGCs (RGCs) | inhibitor of DLK (DLK [2]) | RGC survival in vitro (primary RGCs [3]) | inhibition of LZK (LZK) | targeting as detected by a BglII assay (Dlk [4])
1 | Cc1cc(Nc2cc(N3CCN(C)CC3)nc(Sc3ccc(NC(=O)C4CC4)cc3)n2)[nH]n1 [tozasertib] | had no effect | promotes the survival of human ESC-derived RGCs | protected RGCs in both the rat optic nerve transection and glaucoma models | identified as an inhibitor of DLK | consistently improved RGC survival in vitro more than DLK knockdown or knockout alone | does inhibit LZK | –
2 | GAAGAAGGTTCGAGATCTCAAGG (chemistry not given here) [mm079] | – | – | – | – | – | – | ~100%
